Measured values as given in patent US20220089661A1 (priority 2019, published 2022).
Several values for one entry are separate records, joined by “and”; a condition that tells them apart may be missing. Identical values can stand only once.

Columns and labels:
Format in all cases: cell-based
Fusarium graminearum [1] = test system: Fusarium graminearum
Botrytis cinerea [2] = test system: Botrytis cinerea
Fusarium graminearum [3] = test system: Fusarium graminearum; remark: listed apart in the source
Botrytis cinerea [4] = test system: Botrytis cinerea; remark: listed apart in the source

Question: Which MLC (Fusarium graminearum [1]) does the source give for “OeDef7 (RICESLSHRFKGPCVRRGNCAAVCQTEGFPGGLCRGFRRRCFCTKHC; listed as Olea europaea)” here?
Answer: 3 µM and 6 µM

Question: And the IC50 (Botrytis cinerea [2])?
Answer: 2000 to 3000 nM and 3000 to 4000 nM

Question: And the IC50 (Fusarium graminearum [3])?
Answer: 1000 to 1500 nM and 2000 to 3000 nM

Question: And the MLC (Botrytis cinerea [4])?
Answer: 4 µM and 6 µM
